Where a name gives a salt, the structure may show the parent alone.
How the values were obtained:
[1] = system: rat collagen-induced arthritis model; experiment: Collagen-induced arthritis in rats; format: in vivo, Lewis rats; conditions: MTX 0.3 mg/kg; for effect on paw swelling / arthritis symptoms, therapeutic administration: oral once daily from day 15, JTE-052 0.1, 1, 10 mg/kg
Description: CIA was induced in rats as previously described with some modifications. Briefly, type II collagen (Collagen Research Center, Saitama, Japan) was dissolved in 0.01 M acetic acid at 2 mg/mL, and the solution was emulsified in an equal volume of Freund’s incomplete adjuvant (Difco Laboratories, Detroit, MI). Lewis rats were immunized with 1 mL of the emulsion (1 mg of type II collagen) via ten intradermal injections on the back under anesthesia. The rats were then challenged with 0.2 mL of the emulsion injected into the base of the tail on day 8 under anesthesia. The test drugs were given orally once daily from day 1 to day 21 (preventive administration) or from day 15 to day 28 (therapeutic administration). After arthritis induction, the hind paw volume was measured by a water displacement method using a plethysmometer (Muromachi Kikai Co. Ltd., Tokyo, Japan). On day 22 or day 29, the rats were euthanized, and their hind paws were excised and X-rayed or processed for histological evaluation. Radiographs of the right hindlimbs were taken using a microfocal cone-beam X-ray CT scanner (MCT-CB100MF; Hitachi Medical Corporation, Tokyo, Japan). The severity of bone destruction was scored on a 3-point scale ranging from 0 to 2 for the following five joints: second metatarsal—second intertarsal joint, third metatarsal—third intertarsal joint, talus—central intertarsal joint, calcaneus—fourth intertarsal joint, and astragalo—tibial joint. For histological analysis, the formalin-fixed left hindlimbs were sectioned and stained with hematoxylin and eosin. The histology of the tarsal joints was evaluated by assessing the following parameters defined in the preliminary examination: inflammatory cell infiltration, synovial cell hyperplasia, cartilage destruction, and bone destruction. The severity of each histological change was scored on a 5-point scale ranging from 0 to 4. (Score 0: normal; Score 1: minimal, solitary (and very small) lesion; Score 2: slight, focal (and small) lesion; Score 3: moderate, scattered lesion; and Score 4: severe, extensive lesion).
. The hind paw volume (a) and body weight (b) were measured periodically. Images of hematoxylin and eosin staining (c) and radiographs of hindlimbs (e) are shown. Histological change (d) and radiographical change (f) were scored. The results are expressed as mean ± SD. ^# p < 0.05, ^## p < 0.01, versus vehicle by the Steel test
. The hind paw volume (a) and body weight (b) were measured periodically. Images of hematoxylin and eosin staining (c) and radiographs of hindlimbs (e) are shown. Histological change (d) and radiographical change (f) were scored. The results are expressed as mean ± SD. *p < 0.05, **p < 0.01, versus vehicle by Dunnett’s test. ^# p < 0.05, ^## p < 0.01, versus vehicle by the Steel test

[2] = system: IFN-α signaling (JAK1/Tyk2), Stat1 phosphorylation in hPBMCs; experiment: cells; conditions: Homo sapiens, 0.25 h, read-out: IC50, IFN-α cytokine signaling (JAK1/Tyk2)
Description: (§1) hPBMCs (3 × 10^6 cells/tube) were incubated with a test compound for 30 min at 37 °C, and then treated with IL-2 (100 ng/mL), IL-6 (100 ng/mL), IL-23 (100 ng/mL), IFN-α (100 ng/mL), or GM-CSF (1 ng/mL) for an additional 15 min. To terminate the stimulation, the cells were fixed with Fixation Buffer (BD Biosciences) for 10 min at 37 °C. The fixed cells were incubated with Perm Buffer II (BD Biosciences) for 30 min on ice and then incubated with fluorochrome-labeled anti-CD3, anti-CD4, or anti-phospho-Stat antibodies for 30 min at room temperature. The cytokine-induced Stat phosphorylation was analyzed and quantified using a Cytomics FC500 (Beckman Coulter Inc., Brea, CA). In the case of IL-23 stimulation, hPBMCs were precultured with 10 μg/mL phytohemagglutinin (PHA)-M (Sigma-Aldrich Co.) for 3 days to enhance their response to IL-23.
(§2) The phosphorylation levels of Stat5 (IL-2 and GM-CSF), Stat3 (IL-6 and IL-23), or Stat1 (IFN-α) in CD3^+CD4^+ cells (IL-2, IL-23, and IFN-α) or CD3^-CD4^+ cells (IL-6 and GM-CSF) were analyzed by flow cytometry. Data are presented as percentages of mean fluorescence intensity relative to vehicle (100 %) and non-stimulated control cells (0 %). Values are mean ± SEM. Three independent experiments were performed

[3] = system: IL-2 signaling (JAK1/JAK3), Stat5 phosphorylation in hPBMCs; experiment: cells; conditions: Homo sapiens, 0.25 h, read-out: IC50, IL-2 cytokine signaling (JAK1/JAK3)
Description: as §1, §2

[4] = system: IL-2-induced IFN-γ production; experiment: IL-2-induced IFN-γ production in mice; format: in vivo, DBA/1J mice; conditions: Mus musculus, po
Description: DBA/1J mice were dosed once via oral gavage with compounds. At 1 or 6 h after compound administration, the mice were injected intraperitoneally with 2 μg of recombinant mouse IL-2 and 10 μg of biotinylated anti-mouse IFN-γ capture antibody. After 6 h, the mice were euthanized, and blood was collected. Serum IFN-γ was quantified using a Mouse IFN-γ In Vivo Capture Assay Set (BD Biosciences).
After 1 or 6 h, they were injected with IL-2 and anti-mouse IFN-γ capture antibody. At 6 h after the injection, blood samples were collected, and the serum IFN-γ levels were measured.

[5] = system: kinases in KinaseProfiler; experiment: KinaseProfiler panel as a whole (selectivity for other kinases); format: biochemical; conditions: concentration of 1,000 nM
Description: […]; The selectivity of JTE-052 for other kinases was assessed using KinaseProfiler™ (Millipore Co. Ltd.). […].

[6] = system: rat collagen-induced arthritis model; set-up: method as in PMID 15683847; conditions: cited from earlier work

## CN(Cc1cnc2nc(N)nc(N)c2n1)c1ccc(C(=O)N[C@@H](CCC(=O)O)C(=O)O)cc1 [MTX, Methotrexate hydrate]
[1]; oral once daily from day 1, JTE-052 0.1, 1, 10 mg/kg
  effect on hind paw swelling and joint inflammation, preventive administration: significantly inhibited these symptoms
[1]
  effect on paw swelling / arthritis symptoms, therapeutic administration: did not attenuate all of these symptoms
[1]; listed as methotrexate
  effect on paw swelling / arthritis symptoms, therapeutic administration: ineffective

## N#CC[C@H](C1CCCC1)n1cc(-c2ncnc3[nH]ccc23)cn1 [Ruxolitinib, Ruxolitinib phosphate, reference compound]
[2]
  IC50: 1.1 nM
[3]
  IC50: 13 nM

## C[C@@H]1CCN(C(=O)CC#N)C[C@@H]1N(C)c1ncnc2[nH]ccc12 [Tofacitinib, tofacitinib citrate, reference compound]
[4]; dosed 1 h prior to IL-2 injection
  ED50: 1.1 mg/kg
[4]; dosed 6 h prior to IL-2 injection
  ED50: 13 mg/kg
[5]
  inhibition of other kinases in KinaseProfiler: did not inhibit any of the kinases

## C=CC[C@@H]1/C=C(\C)C[C@H](C)C[C@H](OC)[C@H]2O[C@@](O)(C(=O)C(=O)N3CCCC[C@H]3C(=O)O[C@H](/C(C)=C/[C@@H]3CC[C@@H](O)[C@H](OC)C3)[C@H](C)[C@@H](O)CC1=O)[C@H](C)C[C@@H]2OC [tacrolimus]
[6]
  effect in rat collagen-induced arthritis model, administration after the onset of arthritis: had no inhibitory effects
